Results: US20200405657A1, “TREATMENT OF PAIN USING ALLOSTERIC MODULATOR OF TRPV1” (priority 2019, published 2020)
Entries after “also recorded” stand apart in the source; their conditions may differ.

Legend:
Type in all cases: cell-based
rat TRPV1 [1] = target: T1, rat TRPV1 (Rattus norvegicus, UniProt O35433); experiment: TRPV1-mediated calcium influx (Fluo-4) in HEK cells inducibly expressing TRPV1; conditions: for calcium influx in response to individual terpene / calcium flux in response to individual cannabinoid: HEK+TRPV1 cells; for calcium influx in response to individual terpene: each terpene applied alone; for calcium flux in response to individual cannabinoid: each cannabinoid applied alone
T1 construct: FLAG; expressed in transfected cells; host or cells: TRex HEK293 (pcDNA6TR), rat TRPV1 cDNA in pcDNA4TO, tetracycline-induced
Experimental: The HEK293 cell line was stably transfected with the pcDNA6TR (Invitrogen, CA) plasmid (encoding the tetracycline-sensitive TREx repressor protein), and was maintained in DMEM+10% fetal bovine serum (inactivated at 55° C. for 1 h)+2 mM glutamine in humidified 5% CO2 atmosphere at 37° C. Selection pressure on the TRex 293 cells was maintained by continuous culture in 10 μg/ml Blasticidin (Sigma, St Louis, Mo.).
For production of TRex HEK293 cells with inducible expression of TRPV1, parental cells were electroporated with the rat TRPV1 cDNA in the pcDNA4TO vector and clonal cell lines were selected by limiting dilution in the presence of 400 μg/ml zeocin (Invitrogen, CA). TRPV1 expression was induced using 1 μg/ml tetracycline for 16 h at 37° C.
(§1) Calcium responses mediated by TRPV1 were tested by calcium assay in the cell culture system. Cells were washed and incubated with 0.2 μM fluo-4 acetoxymethyl ester (“Fluo-4”) for 30 minutes at 37° C. in a standard modified Ringer's solution of the following composition (in mM): NaCl 145, KCl 2.8, CsCl 10, CaCl2 10, MgCl2 2, glucose 10, Hepes.NaOH 10, pH 7.4, 330 mOsm. Cells were transferred to 96-well plates at 50,000 cells/well and stimulated as indicated. Calcium signals were acquired using a Flexstation 3 (Molecular Devices, Sunnydale, USA). Data was analyzed using SoftMax® Pro 5 (Molecular Devices). Where indicated, nominally calcium-free external conditions were achieved by the preparation of 0 mM CaCl2 Ringer solution containing 1 mM EGTA. Where indicated, capsaicin (10 μM) and ionomycin (500 nM) were used as positive controls to induce calcium responses. Capsazepine (10 μM) was used where indicated to specifically antagonize TRPV1-mediated calcium responses. Where indicated, baseline traces (no stimulation, NS) were subtracted. Where indicated, vehicle alone traces were subtracted. Where indicated, vehicle comprising various diluents matched to corresponding mixtures was used as a negative control.

TRPV1 = TRPV1 (Rattus norvegicus, UniProt O35433); experiment: TRPV1 desensitization over multiple sequential ligand applications (FIG. 13); conditions: Area Under the Curve analysis, calcium assays or electrophysiology
rat TRPV1 [2] = target: T1, rat TRPV1; experiment: Whole-cell patch clamp in single HEK293 cells overexpressing rat TRPV1; conditions: for outward current: 5 μM myrcene or 1 μM capsaicin; for inward current: average of 6 independent experiments
Experimental: HEK293 cells were kept in sodium-based extracellular Ringer's solution containing 140 mM NaCl, 1 mM CaCl2, 2 mM MgCl2, 2.8 mM KCl, 11 mM glucose, and 10 mM HEPES-NaOH, pH 7.2 and osmolarity 300 mOsmol. The cells' cytosol was perfused with intracellular patch pipette solution containing 140 mM Cs-glutamate, 8 mM NaCl, 1 mM MgCl2, 3 mM MgATP, and 10 mM HEPES-CsOH. The standard internal Ca^2+ concentration was buffered to 180 nM with 4 mM Ca and 10 mM BAPTA. The level of free unbuffered Ca was adjusted using the calculator provided with WebMaxC (http://www.stanford.edu/˜cpatton/webmaxcS.htm). The pH of the final solution was adjusted to pH 7.2 and osmolarity measured at 300 mOsmol.
1 μM capsaicin was used as a positive control for TRPV1 activation. Rapid extracellular solution application and exchange was performed with the SmartSquirt delivery system (Auto-Mate Scientific, San Francisco). The system includes a ValveLink TTL interface between the electronic valves and the EPC-9 amplifier (HEKA, Lambrecht, Germany). This configuration allows for programmable solution changes via the PatchMaster software (HEKA, Lambrecht, Germany).
Patch-clamp experiments were performed in the whole-cell configuration at 21-25° C. Patch pipettes had resistances of 2-3 MΩ. Data was acquired with PatchMaster software controlling an EPC-9 amplifier. Voltage ramps of 50 ms spanning the voltage range from −100 to 100 mV were delivered from a holding potential of 0 mV at a rate of 0.5 Hz over a period of […]. Voltages were corrected for a liquid junction potential of 10 mV. Currents were filtered at 2.9 kHz and digitized at 100 us intervals. Capacitive currents were determined and corrected before each voltage ramp. The development of currents for a given potential was extracted from individual ramp current records by measuring the current amplitudes at voltages of −80 mV and +80 mV. Data were analyzed with FitMaster (HEKA, Lambrecht, Germany), and IgorPro (WaveMetrics, Lake Oswego, Oreg., USA). Where applicable, statistical errors of averaged data are given as mean±s.e.m.

HEK wild type cells = experiment: Calcium flux (Fluo-4) in wild-type HEK cells without the TRPV1 construct; conditions: for calcium response to individual cannabinoid: cells without TRPV1
Experimental: as §1
When wild-type HEK cells without the TRPV1 construct were presented with the same stimulus conditions, calcium fluxes were not observed (FIGS. 5A-5C).

Chain of TRPV1 (O35433 whole entry): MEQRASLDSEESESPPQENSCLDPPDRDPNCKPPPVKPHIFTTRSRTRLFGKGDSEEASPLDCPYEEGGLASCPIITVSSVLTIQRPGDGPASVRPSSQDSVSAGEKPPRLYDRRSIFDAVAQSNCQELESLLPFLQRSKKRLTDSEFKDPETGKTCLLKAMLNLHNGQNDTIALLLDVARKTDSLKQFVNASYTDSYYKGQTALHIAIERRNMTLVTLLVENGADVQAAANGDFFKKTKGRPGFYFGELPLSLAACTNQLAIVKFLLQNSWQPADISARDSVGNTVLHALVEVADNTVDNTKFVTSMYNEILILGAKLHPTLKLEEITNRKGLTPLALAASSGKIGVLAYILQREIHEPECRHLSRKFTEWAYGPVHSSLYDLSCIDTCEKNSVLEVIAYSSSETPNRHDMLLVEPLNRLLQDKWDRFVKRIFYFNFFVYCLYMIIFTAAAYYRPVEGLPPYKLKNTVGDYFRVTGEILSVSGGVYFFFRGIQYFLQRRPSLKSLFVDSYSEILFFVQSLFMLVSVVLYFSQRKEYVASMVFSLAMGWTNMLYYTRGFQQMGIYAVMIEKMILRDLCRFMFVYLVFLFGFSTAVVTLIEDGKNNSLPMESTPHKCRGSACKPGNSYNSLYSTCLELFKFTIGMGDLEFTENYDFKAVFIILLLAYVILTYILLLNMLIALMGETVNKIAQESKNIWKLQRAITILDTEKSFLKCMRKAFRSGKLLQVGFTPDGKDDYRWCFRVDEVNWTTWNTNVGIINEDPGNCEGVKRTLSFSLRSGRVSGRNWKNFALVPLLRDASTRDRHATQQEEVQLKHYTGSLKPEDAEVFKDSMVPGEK
T1 sequence (O35433 whole entry): as above

`Oc1cc2c(cc1O)CN(C(=S)NCCc1ccc(Cl)cc1)CCC2` [capsazepine, reference compound] was tested. Which “myrcene-induced calcium flux in response to TRPV1 inhibitor” value (rat TRPV1 [1]; cells activated with 3.5 μg/ml myrcene, 10 μM capsazepine) did it give?
Its value is “diminished”.

With `C=CC(=C)CCC=C(C)C` [Myrcene, 7-methyl-3-methylideneocta-1,6-diene] as the compound, how does the “desensitization of the channel” value (TRPV1) read?
The value was “cause desensitization”.

And the outward current (rat TRPV1 [2])?
Its outward current is “lower amplitude than the inward current”.

And the “TRPV1 channel state on activation (IV relationship)” value (rat TRPV1 [2]; 5 μM myrcene, 1 μM capsaicin)?
Its value is “primarily in State 1”.

What about the inward current (rat TRPV1 [2]; 5 μM myrcene, 1 mM Ca) of the same compound?
Its inward current is “approximately 0.5 nA”.

And the current induced (rat TRPV1 [2]; 5 μM, 10 μM and 150 μM myrcene)?
The current induced was 0.5-2.2 nA.

What about the “dose response of current in individual cells” value (rat TRPV1 [2]; 5, 10, 150 μM) of the same compound?
Its value is “dose-dependent response”.

What about the “response to second stimulus Cannabidiol after prior Myrcene saturation” value (rat TRPV1 [2]; Myrcene at 0 mM external Ca2+, then Cannabidiol at 1 mM external Ca2+, versus no prior Myrcene) of the same compound?
Its value is “suppressed”.

And the “activator strength at TRPV1” value (rat TRPV1 [2]; producing nA currents)?
The value was “strong activator of TRPV1”.

And the “calcium influx, calcium-free medium” value (HEK wild type cells; wild-type HEK cells without TRPV1, myrcene 0.43-3.5 μg/ml)?
Its value is “not observed or were only minimal”.

What about the “calcium flux in response to myrcene” value (HEK wild type cells; wild-type HEK cells, 3.5-0.43 μg/ml, compared with HEK+TRPV1) of the same compound?
The value was “much smaller”.

And the “calcium-mediated fluorescence, calcium-free medium, high concentration” value (rat TRPV1 [1]; 0 mM external calcium + 1 mM EGTA, 3.5 μg/ml)?
Its value is “induced such increase”.

What about the “calcium-mediated fluorescence, calcium-free medium, low concentrations” value (rat TRPV1 [1]; 0 mM external calcium + 1 mM EGTA, 0.43, 0.875 and 1.75 μg/ml) of the same compound?
Its value is “did not cause increase”.

And the “calcium response to different concentrations of myrcene” value (rat TRPV1 [1]; 3.5, 1.75, 0.875 and 0.43 μg/ml)?
Its value is “dose-dependent”.

And the “calcium influx in response to individual terpene” value (“calcium influx in response” for short) (rat TRPV1 [1])?
The value was “significant agonist activity”.

And the “calcium influx in response” value (rat TRPV1 [1]; listed as myrcene)?
Its value is “significant calcium flux was detected; also recorded: did not account for 100% of the calcium influx signal”.

What does the source list for `CCCCCc1cc(O)c(C/C=C(\C)CCC=C(C)C)c(O)c1C(=O)O` [cannabigerolic acid, Cannabigerolic Acid]?
calcium response to individual cannabinoid (HEK wild type cells): only minimal or absent; calcium flux in response to individual cannabinoid (rat TRPV1 [1]): most potent; also recorded: calcium flux was detected

What does the source list for `C=C(C)[C@@H]1CCC(C)=C[C@H]1c1c(O)cc(CCCCC)cc1O` [Cannabidiol]?
desensitization of the channel (TRPV1): cause desensitization; Imax of activated current (rat TRPV1 [2]; 30 μM CBD): up to 5 nA; Erev of rectifying current (rat TRPV1 [2]; CBD): ~0 mV; sensitivity of CBD-induced current (rat TRPV1 [2]; capsazepine application, washout of CBD): sensitive to both capsazepine and washout; calcium response to individual cannabinoid (HEK wild type cells): only minimal or absent; calcium flux in response to individual cannabinoid (rat TRPV1 [1]): most potent; also recorded: calcium flux was detected

For `C=C(C)[C@@H]1CCC(C)=C[C@H]1c1c(O)cc(CCC)cc1O` [cannabidivarin, Cannabidivarin], which “calcium response to individual cannabinoid” value (HEK wild type cells) is on record?
The value was “only minimal or absent”.

What about the “calcium flux in response to individual cannabinoid” value (rat TRPV1 [1]) of the same compound?
The value was “most potent; also recorded: calcium flux was detected”.

With `CC(C)=CCC[C@](C)(O)[C@@H]1CC=C(C)CC1` [Bisabolol, 6-methyl-2-(4-methylcyclohex-3-en-1-yl)hept-5-en-2-ol] as the compound, how does the “calcium influx in response” value (rat TRPV1 [1]) read?
The value was “not observed”.

How did the “calcium influx in response” value (rat TRPV1 [1]) turn out when `C=CC(C)(O)CCC=C(C)CCC=C(C)C` (stereo not drawn) [Nerolidol, 3,7,11-Trimethyl-1,6,10-dodecatrien-3-ol] was run?
The value was “more modest agonist activity; also recorded: activated TRPV1-mediated Ca^2+ influx”.

And the “calcium influx in response” value (rat TRPV1 [1]; listed as nerolidol)?
The value was “significant calcium flux was detected”.

`C=C/C(C)=C/CC=C(C)C` [Ocimene] was tested. Which “calcium influx in response” value (rat TRPV1 [1]) did it give?
The value was “not observed”.

With `C=C(C)[C@@H]1CCC(C)=C[C@H]1c1c(O)cc(CCCCC)c(C(=O)O)c1O` [cannabidiolic acid, Cannabidiolic Acid] as the compound, how does the “calcium response to individual cannabinoid” value (HEK wild type cells) read?
The value was “only minimal or absent”.

What about the “calcium flux in response to individual cannabinoid” value (rat TRPV1 [1]) of the same compound?
Its value is “most potent; also recorded: calcium flux was detected”.

With `C=CC(C)(O)CCC=C(C)C` (stereo not drawn) [Linalool, 3,7-dimethyl-1,6-octadien-3-ol] as the compound, how does the “calcium influx in response” value (rat TRPV1 [1]) read?
The value was “not observed”.

With `COc1cc(CNC(=O)CCCC/C=C/C(C)C)ccc1O` [capsaicin, reference compound] as the compound, how does the “desensitization of the channel” value (TRPV1) read?
The value was “can cause desensitization”.

And the current induced (rat TRPV1 [2]; 1 μM capsaicin)?
Its current induced is 4-10 nA.

What about the inward current (rat TRPV1 [2]; 1 μM capsaicin after myrcene) of the same compound?
The inward current was “approximately 9 nA”.

And the outward current (rat TRPV1 [2])?
The outward current was “lower amplitude than the inward current”.

What about the “TRPV1 channel state on activation (IV relationship)” value (rat TRPV1 [2]; 5 μM myrcene, 1 μM capsaicin) of the same compound?
The value was “dilated state”.

And the capsaicin calcium flux (HEK wild type cells; HEK wild type cells without a construct encoding TRPV1)?
Its capsaicin calcium flux is “not detected”.

What about the capsaicin-specific calcium flux (rat TRPV1 [1]; TRPV1-induced HEK cells) of the same compound?
Its capsaicin-specific calcium flux is “capsaicin-specific calcium fluxes”.

Which “calcium response to individual cannabinoid” value (HEK wild type cells) does the source give for `CCCCCc1cc(O)c2c(c1)OC(C)(CCC=C(C)C)C=C2` (stereo not drawn) [cannabichromene, Cannabichromene] here?
The value was “only minimal or absent”.

And the “calcium flux in response to individual cannabinoid” value (rat TRPV1 [1])?
The value was “most potent; also recorded: calcium flux was detected”.
